# Test results: patent US20160120886A1, “PREVENTION, TREATMENT, AND AMELIORATION OF RADIATION INDUCED ENTERITIS” (priority 2004, published 2016)
# What was measured:
# [1] = cited from earlier work
# radiation enteritis [2] = assay: Clinical trial of balsalazide to treat radiation enteritis; type: in vivo, human; conditions: patients on pelvic radiotherapy
# Procedure: Subjects included patients treated for FIGO stage IB2-IVA cervical cancer, AJCC Stage T1-3 MO prostate cancer, or biochemical failure after prostatectomy. Radiotherapy was delivered to the subjects in a 4-field technique to at least 40 Gy, and tumor dose was at least 64 Gy for prostate patients, and 75 Gy for cervical patients. Brachytherapy boost was permitted. Patients were given 2250 mg of BSZ or an Identical-appearing placebo twice daily beginning 5 days prior to radiotherapy, and continuing for 2 weeks after completion. Toxicities were graded weekly according to NCI Common Toxicity Criteria, for each of the following: proctitis, diarrhea, dysuria, weight loss, fatigue, nausea, and vomiting. A symptom index was formulated for each toxicity consisting of the toxicity's numeric grade multiplied by the number of days it was experienced, and summed for each grade. Thus, a patient with 7 days of grade 1 proctitis, 14 days of grade 2 proctitis, and 7 days of grade 3 proctitis [(1*7)+(2*14)+(3*7)] would have a proctitis index of 56. A higher Index indicates worse toxicity. Patients were randomized by sealed envelope decision, with only the protocol coordinator aware of the results of randomization. After randomization, the study drug or identical-appearing placebo was given to the study subject with instructions concerning dosage and administration schedule. As stated above, the toxicity was assessed weekly during the course of radiation treatment, then for a period of at least six months after completion of radiotherapy. National Cancer Institute (NCI) common toxicity criteria were used to grade the severity of radiation-induced acute bowel toxicity. Diarrhea was used as the primary endpoint and was assessed as follows: Grade 0—no diarrhea or increased stool frequency Grade 1—increase of 2-3 stools/day Grade 2—increase of 4-6 stools/day or nocturnal stool Grade 3—increase of 7-9 stools/day or incontinence Grade 4—increase of >10 stools/day or grossly bloody diarrhea Documented baseline hemorrhoidal bleeding was not considered grade 4. A secondary endpoint included proctitis, which was assessed using guidelines outlined by the NCI Common Toxicity Criteria, including: Grade 0—None Grade 1—Increased stool frequency, occasional blood-streaked stools or rectal discomfort, not requiring medication Grade 2—increased stool frequency, bleeding, mucous discharge or rectal discomfort requiring medication Grade 3—increased stool frequency/diarrhea requiring parenteral support, rectal bleeding requiring transfusion, or persistent mucus discharge necessitating the use of pads Grade 4—perforation, bleeding or necrosis, or other life-threatening complications requiring surgical intervention
# radiation enteritis [3] = conditions: related 5-ASA drugs; cited from earlier work
# [4] = cited from earlier work; remark: listed apart in the source
# [5] = 2250 mg twice daily, versus placebo
compound,measurement,setting,value
O=C(O)CCNC(=O)c1ccc(/N=N/c2ccc(O)c(C(=O)O)c2)cc1 [balsalazide],"adverse events reported in trials (headache, nausea, diarrhea, flatulence, fatigue)",[1]; versus placebo,comparable to those seen in patients receiving placebo
same,"proctitis mean index (symptom index: toxicity grade x days, summed)","radiation enteritis [2]; 2250 mg twice daily from 5 days prior to radiotherapy until 2 weeks after, vs. 77 in placebo (p=0.04), higher index = worse",35
same,nausea/vomiting seen,"radiation enteritis [2]; 2250 mg twice daily, 1 on placebo",2 patients
same,patients experiencing grade 4 diarrhea,"radiation enteritis [2]; 2250 mg twice daily, 2 placebo patients did",No patient
same,fatigue index,"radiation enteritis [2]; 2250 mg twice daily, placebo averaged 49",20
same,average weight change,"radiation enteritis [2]; 2250 mg twice daily, placebo lost greater than 3 pounds",gained weight
same,all toxicities except nausea/vomiting,radiation enteritis [2]; [5],appreciably lower
same,dysuria,radiation enteritis [2]; [5],appreciably lower
O=C(O)c1cc(/N=N/c2ccc(O)c(C(=O)O)c2)ccc1O [osalazine],outcome in clinical trials for radiation enteritis,radiation enteritis [3],failure
"Nc1ccc(O)c(C(=O)O)c1 [mesalamine, 5-aminosalicylic acid]",outcome in clinical trials for radiation enteritis,radiation enteritis [3],failure
O=C(O)CCNC(=O)c1ccc(/N=N/c2ccc(O)c(C(=O)O)c2)cc1 [balsalazide disodium],water solubility,[4],highly water-soluble
same,"abdominal pain (only statistically significant side effect), patients receiving the drug",[1]; versus 0% in those receiving placebo,11%
